Where a name gives a salt, the structure may show the parent alone.
biological target: T1, human Cav3.2 channels (Homo sapiens, UniProt O95180); test: T-type calcium blocking action: intracellular calcium (Fluo-4 AM fluorescence) in HEK293 cells steadily expressing human Cav3.2 channels; format: cell-based; details: HEK293 cells expressing human Cav3.2; KCl-stimulated calcium influx, Fluo-4 fluorescence; Tables 1 to 3
T1 construct: human Cav3.2 channel ORF (Open Reading Frame) gene; expressed in transfected cells; host or cells: HEK293 cells (ATCC No. CRL-1573), pcDNA3.1(+) plasmid
T1 sequence (O95180 whole entry): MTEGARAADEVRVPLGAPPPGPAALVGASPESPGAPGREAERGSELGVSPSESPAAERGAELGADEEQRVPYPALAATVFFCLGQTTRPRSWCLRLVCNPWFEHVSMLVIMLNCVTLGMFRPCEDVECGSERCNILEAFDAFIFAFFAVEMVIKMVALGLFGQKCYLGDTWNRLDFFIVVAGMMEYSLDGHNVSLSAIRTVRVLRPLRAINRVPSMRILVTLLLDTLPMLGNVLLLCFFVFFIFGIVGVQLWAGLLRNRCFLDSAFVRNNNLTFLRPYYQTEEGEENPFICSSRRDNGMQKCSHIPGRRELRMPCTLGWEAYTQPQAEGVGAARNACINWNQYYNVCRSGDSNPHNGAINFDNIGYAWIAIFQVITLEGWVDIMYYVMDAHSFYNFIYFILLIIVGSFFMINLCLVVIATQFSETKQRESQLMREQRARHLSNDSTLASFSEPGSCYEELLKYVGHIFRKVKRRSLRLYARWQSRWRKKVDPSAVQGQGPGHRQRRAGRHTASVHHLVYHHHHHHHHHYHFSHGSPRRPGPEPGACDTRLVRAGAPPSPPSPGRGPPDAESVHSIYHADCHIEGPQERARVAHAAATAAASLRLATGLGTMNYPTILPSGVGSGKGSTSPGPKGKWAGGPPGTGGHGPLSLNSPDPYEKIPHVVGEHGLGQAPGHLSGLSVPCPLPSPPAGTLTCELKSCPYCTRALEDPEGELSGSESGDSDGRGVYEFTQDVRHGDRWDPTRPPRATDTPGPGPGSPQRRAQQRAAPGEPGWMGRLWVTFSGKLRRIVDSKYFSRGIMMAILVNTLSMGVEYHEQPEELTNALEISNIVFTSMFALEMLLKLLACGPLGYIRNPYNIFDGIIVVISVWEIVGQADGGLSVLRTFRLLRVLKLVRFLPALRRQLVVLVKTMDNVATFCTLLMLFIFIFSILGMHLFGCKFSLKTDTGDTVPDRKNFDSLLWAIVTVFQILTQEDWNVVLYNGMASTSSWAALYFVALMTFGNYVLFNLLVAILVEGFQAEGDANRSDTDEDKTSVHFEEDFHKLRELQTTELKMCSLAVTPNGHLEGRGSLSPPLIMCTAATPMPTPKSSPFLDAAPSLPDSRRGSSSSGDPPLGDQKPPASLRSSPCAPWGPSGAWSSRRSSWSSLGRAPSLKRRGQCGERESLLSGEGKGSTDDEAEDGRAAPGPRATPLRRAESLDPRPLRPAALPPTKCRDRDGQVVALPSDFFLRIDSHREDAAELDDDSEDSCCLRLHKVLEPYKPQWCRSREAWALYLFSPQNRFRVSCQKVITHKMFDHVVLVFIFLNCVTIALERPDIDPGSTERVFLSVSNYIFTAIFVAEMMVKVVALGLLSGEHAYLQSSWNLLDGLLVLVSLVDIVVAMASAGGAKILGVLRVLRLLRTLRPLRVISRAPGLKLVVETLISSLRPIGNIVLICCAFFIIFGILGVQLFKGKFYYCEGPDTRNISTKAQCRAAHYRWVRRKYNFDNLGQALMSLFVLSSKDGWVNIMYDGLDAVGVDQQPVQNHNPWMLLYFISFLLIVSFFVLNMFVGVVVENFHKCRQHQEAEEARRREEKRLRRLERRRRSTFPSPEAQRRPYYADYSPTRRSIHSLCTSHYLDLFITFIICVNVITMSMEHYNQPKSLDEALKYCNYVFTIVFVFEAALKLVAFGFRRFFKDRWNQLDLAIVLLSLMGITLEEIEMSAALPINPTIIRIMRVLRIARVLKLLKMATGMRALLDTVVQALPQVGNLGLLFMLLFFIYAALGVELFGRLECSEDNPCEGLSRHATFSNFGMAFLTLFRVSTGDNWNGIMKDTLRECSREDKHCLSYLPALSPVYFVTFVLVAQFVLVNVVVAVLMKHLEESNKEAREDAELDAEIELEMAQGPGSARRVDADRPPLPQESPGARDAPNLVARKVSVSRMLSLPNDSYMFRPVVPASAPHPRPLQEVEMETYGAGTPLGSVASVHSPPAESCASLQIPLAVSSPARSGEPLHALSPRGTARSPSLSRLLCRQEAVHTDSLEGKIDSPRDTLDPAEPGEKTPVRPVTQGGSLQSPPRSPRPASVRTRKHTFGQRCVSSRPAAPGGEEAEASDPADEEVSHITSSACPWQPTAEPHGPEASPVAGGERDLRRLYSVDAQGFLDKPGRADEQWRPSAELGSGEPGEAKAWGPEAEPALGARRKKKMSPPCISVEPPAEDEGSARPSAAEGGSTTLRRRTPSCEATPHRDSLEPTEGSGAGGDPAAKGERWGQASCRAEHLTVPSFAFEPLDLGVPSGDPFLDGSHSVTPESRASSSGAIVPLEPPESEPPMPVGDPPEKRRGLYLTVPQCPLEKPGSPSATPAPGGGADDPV
Source text: T-Type Calcium Blocking Action
(1) Construction of Cells Steadily Expressing Human Cav3.2 Channels
A sequence obtained by adding HindIII site and a kozak sequence (GCCACC) to the 5′-side of human Cav3.2 channel ORF (Open Reading Frame) gene and adding a KpnI site to the 3′-side of the gene, was incorporated into pcDNA3.1(+) (Thermo Fisher Scientific, #V790-20), and the plasmid was introduced into HEK293 cells (ATCC No. CRL-1573) according to the protocol of FuGENE (registered trademark) HD Transfection Reagent (Promega, #E2311).
(2) Method for Measuring Intracellular Calcium Concentration
The cells steadily expressing human Cav3.2 channels produced by testing method (1) were seeded on a 96-well plate (Dulbecco's modified Eagle medium (DMEM) medium containing 10% fetal bovine serum (FBS) was used as a medium). The cells were seeded and cultured for 48 hours under conditions of 37° C. and 5% CO2. Thereafter, the cells were washed with buffer A in order to remove the medium. Each well was treated with 80 μL of a fluorescent dye solution produced by mixing 22 μg of a fluorescent calcium indicator, Fluo-4 AM (Dojindo Laboratories, #F311), 20 μL of DMSO, 1 μL of 10% Pluronic F-127 (Thermo Fisher Scientific, #P6866), and 4 mL of buffer A. The cells were allowed to stand for 45 minutes at room temperature under light-shielded conditions, and then washed with buffer B in order to completely replace the solution. 70 μL of DMSO having the same concentration as that of a test compound as a negative control and 70 μL of a mixture containing 1 μM of a known blocker RQ-00311651 and the test compound as a positive control were each added to each well in a form of being contained in the buffer B. The test compound was dissolved in 100% DMSO and added at a final concentration of 0.1%. Then, the cells were further allowed to stand at room temperature under light-shielded conditions for 15 minutes and placed in a microplate reader EnVision (PerkinElmer). Background fluorescence was measured in each well, and then a 5 μg/mL grammicidin solution was added to buffer B at 10 μL/well. After 90 seconds, baseline fluorescence was measured. Thereafter, 83.8 mM KCl was added to buffer B at 20 μL/well, and an increase in fluorescence caused by calcium influx generated by the stimulus was measured for 10 seconds. A blocking percentage was calculated from a maximum fluorescence increase value from a baseline, a logarithmic value of a compound concentration and blockery activity were plotted, and thereby an IC50 value was calculated. In the measurement, fluorescence at 510 nm that was emitted when the cells were irradiated with excitation light at 485 nm was observed.
Buffer A: 140 mM NaCl, 5 mM KCl, 1 mM MgCl2, 0.5 mM CaCl2, 10 mM Glucose, 10 mM HEPES, pH 7.3
Buffer B: 137.9 mM Choline-Cl, 4.1 mM KCl, 1 mM MgCl2, 0.5 mM CaCl2, 10 mM Glucose, 10 mM HEPES, pH 7.3

Row | IC50 | Compound
1 | 110 nM | O=C(N[C@@H]1CCN(c2ccc(C(F)(F)F)cc2)C1)C1CC1c1nc2ccccc2[nH]1 (single isomer, unassigned) [Example 52]
2 | 1300 nM | O=C(Cc1ccc2ocnc2c1)N[C@@H]1CCN(c2cncc(C(F)(F)F)c2)C1 [Example 152, (R)-2-(benzo[d]oxazol-5-yl)-N-(1-(5-(trifluoromethyl)pyridin-3-yl)pyrrolidin-3-yl)acetamide]
3 | 1200 nM | NC(=O)C1(NC(=O)Cc2ccc(C3CC3)cc2)CCN(c2cncc(C(F)(F)F)c2)C1 (stereo not shown) [Example 21, 3-(2-(4-cyclopropylphenyl)acetamido)-1-(5-(trifluoromethyl)pyridin-3-yl)pyrrolidine-3-carboxyamide]
4 | 210 nM | O=C(N[C@@H]1CCN(c2nc3ccc(F)cc3s2)C1)[C@H]1C[C@@H]1c1nc2ccccc2[nH]1 [Example 72, (1S,2S)-2-(1H-benzo[d]imidazol-2-yl)-N—((R)-1-(6-fluorobenzo[d]thiazol-2-yl)pyrrolidin-3-yl)cyclopropane-1-carboxyamide]
5 | 1400 nM | CC(C(=O)N[C@@H]1CCN(c2ccc(C(F)(F)F)nc2)C1)c1ccc(C(F)(F)F)cc1 (stereo partly drawn) [Example 185, 2-(4-(Trifluoromethyl)phenyl)-N—((R)-1-(6-(trifluoromethyl)pyridin-3-yl)pyrrolidin-3-yl)propanamide]
6 | 230 nM | CC(C)(C(=O)N[C@@H]1CCN(c2cncc(C(F)(F)F)c2)C1)c1ccc(C2CC2)cc1 [Example 135, (R)-2-(4-cyclopropylphenyl)-2-methyl-N-(1-(5-(trifluoromethyl)pyridin-3-yl)pyrrolidin-3-yl)propanamide]
7 | 190 nM | CCC1(NC(=O)Cc2ccc(C3CC3)cc2)CCN(c2cncc(C(F)(F)F)c2)C1 (stereo not shown) [Example 43, 2-(4-cyclopropylphenyl)-N-(3-ethyl-1-(5-(trifluoromethyl)pyridin-3-yl)pyrrolidin-3-yl)acetamide]
8 | 480 nM | C[C@H]1C[C@@H](NC(=O)Cc2ccc(C3CC3)cc2)CN1c1cncc(C(F)(F)F)c1 [Example 9, 2-(4-cyclopropylphenyl)-N-((3R,5S)-5-methyl-1-(5-(trifluoromethyl)pyridin-3-yl)pyrrolidin-3-yl)acetamide]
9 | 14 nM | O=C(N[C@@H]1CCN(c2cncc(C(F)(F)F)c2)C1)[C@H]1C[C@@H]1c1nc2ccc(F)cc2o1 [Example 44, (1S,2S)-2-(6-fluorobenzo[d]oxazol-2-yl)-N—((R)-1-(5-(trifluoromethyl)pyridin-3-yl)pyrrolidin-3-yl)cyclopropane-1-carboxyamide]
10 | 200 nM | O=C(Cc1ccc(C2CC2)cc1)N[C@H]1CN(c2nc(C(F)(F)F)cs2)CC12CC2 [Example 8, (R)-2-(4-cyclopropylphenyl)-N-(5-(4-(trifluoromethyl)thiazol-2-yl)-5-azaspiro[2.4]heptan-7-yl) acetamide]
11 | 560 nM | O=C(Cc1ccc(C(F)(F)F)cc1)NC1(C(F)(F)F)CCN(c2cncc(C(F)(F)F)c2)C1 (stereo not shown) [Example 162, N-(3-(trifluoromethyl)-1-(5-(trifluoromethyl)pyridin-3-yl)pyrrolidin-3-yl)-2-(4-(trifluoromethyl)phenyl)acetamide]
12 | 55 nM | Cc1ncoc1-c1ccc(CC(=O)N[C@@H]2CCN(c3cncc(C(F)(F)F)c3)C2)cc1 [Example 133, (R)-2-(4-(4-methyloxazol-5-yl)phenyl)-N-(1-(5-(trifluoromethyl)pyridin-3-yl)pyrrolidin-3-yl)acetamide]
13 | 1000 nM | Cc1nc2cc(CC(=O)N[C@@H]3CCN(c4ccc(C(F)(F)F)nc4)C3)ccc2o1 [Example 154, (R)-2-(2-methylbenzo[d]oxazol-5-yl)-N-(1-(6-(trifluoromethyl)pyridin-3-yl)pyrrolidin-3-yl)acetamide]
14 | 930 nM | O=C(Cc1ccc(C2CC2)cc1)N[C@@H]1CCN(c2cc(C(F)(F)F)c[n+]([O-])c2)C1 [Example 134A, (R)-3-(3-(2-(4-cyclopropylphenyl)acetamido)pyrrolidin-1-yl)-5-(trifluoromethyl)pyridine 1-oxide]
15 | 240 nM | O=C(N[C@@H]1CCN(c2ccc(C(F)(F)F)nc2)C1)[C@H]1C[C@@H]1c1nc2ccc(F)cc2o1 [Example 48, (1S,2S)-2-(6-fluorobenzo[d]oxazol-2-yl)-N—((R)-1-(6-(trifluoromethyl)pyridin-3-yl)pyrrolidin-3-yl)cyclopropane-1-carboxyamide]
16 | 820 nM | O=C(Cc1cc(F)cc(Cl)c1)N[C@@H]1CCN(c2cncc(C(F)(F)F)c2)C1 [Example 120, (R)-2-(3-chloro-5-fluorophenyl)-N-(1-(5-(trifluoromethyl)pyridin-3-yl)pyrrolidin-3-yl)acetamide]
17 | 27 nM | COC(=O)C1(NC(=O)Cc2ccc3cc[nH]c3c2)CCN(c2cncc(C(F)(F)F)c2)C1 (stereo not shown) [Example 37, Methyl 3-(2-(1H-indol-6-yl)acetamido)-1-(5-(trifluoromethyl)pyridin-3-yl)pyrrolidine-3-carboxylate]
18 | 90 nM | O=C(N[C@@H]1CCN(c2cncc(C(F)(F)F)c2)C1)C1CC1c1cc(Cl)cc(Cl)c1 (single isomer, unassigned) [Example 99A]
19 | 690 nM | CN(C)C(C(=O)N[C@@H]1CCN(c2cncc(C(F)(F)F)c2)C1)c1ccc(C2CC2)cc1 (stereo partly drawn) [Example 138, 2-(4-cyclopropylphenyl)-2-(dimethylamino)-N—((R)-1-(5-(trifluoromethyl)pyridin-3-yl)pyrrolidin-3-yl)acetamide hydrochloride]
20 | 310 nM | O=C(N[C@@H]1CCN(c2cccc(C(F)(F)F)c2)C1)[C@H]1C[C@@H]1c1nc2ccccc2n1C1CC1 [Example 75, (1S,2S)-2-(1-cyclopropyl-1H-benzo[d]imidazol-2-yl)-N—((R)-1-(3-(trifluoromethyl)phenyl)pyrrolidin-3-yl)cyclopropane-1-carboxyamide]
21 | 9900 nM | CC(C)c1ccc(CC(=O)N[C@@H]2CCN(c3ncc(C(F)(F)F)cn3)C2)cc1 [Example 111, (R)-2-(4-isopropylphenyl)-N-(1-(5-(trifluoromethyl)pyrimidin-2-yl)pyrrolidin-3-yl)acetamide]
22 | 550 nM | O=C(Cc1ccc(C2CC2)cc1)N[C@@H]1CCN(c2nc3ccc(F)cc3s2)C1 [Example 172, (R)-2-(4-cyclopropylphenyl)-N-(1-(6-fluorobenzo[d]thiazol-2-yl)pyrrolidin-3-yl)acetamide]
23 | 200 nM | O=C(Cc1ccc(C(F)(F)F)cc1)N[C@@H]1CCN(c2ccc(C(F)(F)F)nc2)C1 [Example 183, (R)-2-(4-(trifluoromethyl)phenyl)-N-(1-(6-(trifluoromethyl)pyridin-3-yl)pyrrolidin-3-yl)acetamide]
24 | 44 nM | O=C(Cc1ccc(C(F)(F)F)cc1)N[C@@H]1CCN(c2cncc(C(F)(F)F)c2)C1 [Example 123, (R)-2-(4-(trifluoromethyl)phenyl)-N-(1-(5-(trifluoromethyl)pyridin-3-yl)pyrrolidin-3-yl)acetamide]
25 | 280 nM | O=C(Cc1ccc2ncsc2c1)N[C@@H]1CCN(c2cncc(C(F)(F)F)c2)C1 [Example 157, (R)-2-(benzo[d]thiazol-6-yl)-N-(1-(5-(trifluoromethyl)pyridin-3-yl)pyrrolidin-3-yl)acetamide]
26 | 110 nM | O=C(Cc1ccc(Br)cc1)N[C@@H]1CCN(c2cncc(C(F)(F)F)c2)C1 [Example 171, (R)-2-(4-bromophenyl)-N-(1-(5-(trifluoromethyl)pyridin-3-yl)pyrrolidin-3-yl)acetamide]
27 | 130 nM | O=C(Cc1ccc2cc[nH]c2c1)NC1CN(c2cncc(C(F)(F)F)c2)C1 [Example 90, 2-(1H-indol-6-yl)-N-(1-(5-(trifluoromethyl)pyridin-3-yl)azetidin-3-yl)acetamide]
28 | 160 nM | Cn1nnc2cc(CC(=O)N[C@@H]3CCN(c4cncc(C(F)(F)F)c4)C3)ccc21 [Example 167, (R)-2-(1-methyl-1H-benzo[d][1,2,3]triazol-5-yl)-N-(1-(5-(trifluoromethyl)pyridin-3-yl)pyrrolidin-3-yl)acetamide]
